Assay results as given in PubChem BioAssay (NCI).
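Interpolation was linear, between the two tested concentrations surrounding the appropriate level; five concentrations were tested over 48 hours in 96-well plates. GI50 is the concentration that inhibits growth by half. TGI: total growth inhibition.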

Columns and labels:
Test in all cases: DTP human tumour cell line panel, 48 h
TK-10 renal = tested on: TK-10 renal
U251 CNS = tested on: U251 CNS
SR leukemia = tested on: SR leukemia
HCC-2998 colon = tested on: HCC-2998 colon
UO-31 renal = tested on: UO-31 renal
KM12 colon = tested on: KM12 colon
LOX IMVI melanoma = tested on: LOX IMVI melanoma
RXF 393 renal = tested on: RXF 393 renal

Compound | GI50 (TK-10 renal) [µM] | TGI (TK-10 renal) [µM] | GI50 (U251 CNS) [µM] | TGI (U251 CNS) [µM] | GI50 (SR leukemia) [µM] | TGI (SR leukemia) [µM] | GI50 (HCC-2998 colon) [µM] | TGI (HCC-2998 colon) [µM] | GI50 (UO-31 renal) [µM] | TGI (UO-31 renal) [µM] | GI50 (KM12 colon) [µM] | GI50 (LOX IMVI melanoma) [µM] | TGI (LOX IMVI melanoma) [µM] | GI50 (RXF 393 renal) [µM] | TGI (KM12 colon) [µM] | TGI (RXF 393 renal) [µM]
Nc1ncnc2c1c(C(=O)NO)cn2C1OC(CO)C(O)C1O (stereo not given) | 0.572 | > 31.4 | 0.419 | > 100 | 0.329 | 1.88 | 0.587 | 6.83 | 0.368 | 3.75 | 0.267 | 0.262 | 1.77 | 0.331 | – | –
COc1ccc2cc(C(=O)/C=C/c3ccco3)ccc2c1 | 25.6 | 70 | 28.5 | 97.4 | 16.2 | 68.2 | – | – | 37.5 | > 100 | 34.5 | 54 | > 100 | 15.9 | > 100 | 38.7
O=C(Nc1ccc(Cl)cc1F)c1cc(Cl)ccc1O | 1.31 | > 31.2 | 0.466 | > 100 | 2.2 | > 49.3 | 2.23 | 8.77 | 0.208 | 1.92 | 1.51 | – | – | 0.437 | 4.28 | 4.73
Cc1ccc(C)c(N2C(=O)C(=O)c3c(C)ccc(C)c32)c1 | – | 85 | – | 35.2 | – | 37.7 | – | – | – | 55.3 | – | – | 31.2 | – | 66.1 | > 100
O=C1C(Cl)=C(Nc2cccc(O)c2)C(=O)N1c1ccc(Cl)cc1Cl | > 100 | > 100 | 19 | 66.7 | 2.76 | 26.9 | – | – | 50.7 | > 100 | 38.8 | 19.3 | 48.3 | 17 | > 100 | 67.3
C(=C\c1nc2ccccc2s1)/c1ccc(N2CCOCC2)s1 | 48.4 | > 100 | 44.8 | > 100 | 58.9 | > 100 | – | – | 80.5 | > 100 | 93.8 | 38.4 | > 100 | 31.3 | > 100 | > 100
Cc1cc2c(=O)c3ccccc3oc2c(C#N)c1C | – | > 100 | – | > 100 | – | > 100 | – | > 100 | – | > 100 | – | – | – | – | > 100 | > 100
CNc1ccc(C(=O)CC(O)CCC(C)C2OC(=O)CC(O)CC(=O)CC(O)CC(O)CC(O)CC(O)CC3(O)CC(O)C(C(=O)NCCc4ccccn4)C(CC(OC4OC(C)C(O)C(N)C4O)/C=C/C=C/C=C/C=C\C=C/C=C/C=C/C2C)O3)cc1 (stereo not given) | 0.128 | 0.499 | 2.11 | > 40.3 | – | – | 1.59 | 4.88 | 0.551 | – | 3.6 | 2.11 | > 50 | 1.05 | > 18.9 | 30.4
Cc1nn(-c2ccccc2)c(C)c1/C=N/N1CCN(Cc2ccccc2)CC1 | 28.7 | > 100 | 67.5 | > 100 | 13.8 | 35.1 | – | – | 66.4 | > 100 | 31.3 | 44 | > 100 | > 100 | > 100 | > 100
O=C(O)CP(=O)(c1ccccc1)c1ccccc1.O=C(O)CP(=O)(c1ccccc1)c1ccccc1.[Cd] | 16.9 | 34.5 | 14.3 | 28.9 | 13.6 | 31.8 | – | – | 21.6 | 49.1 | 7.97 | – | – | 68.8 | 22.7 | > 100
Cc1[nH]c2ccccc2c1C1=CC(=O)C=CC1=O | 2.32 | 5.85 | 14.8 | 31.4 | – | – | 15.7 | 29.4 | 10.5 | 23.2 | 12.2 | 9.77 | 22.3 | 10.6 | 25.5 | 22.9
CCCC(=O)Nc1ncnc2c1ncn2C1OC2COP(=O)(O)OC2C1OC(=O)CCC (stereo not given) | – | > 1000 | > 1000 | > 1000 | – | > 1000 | > 1000 | > 1000 | – | > 1000 | > 1000 | > 1000 | > 1000 | – | > 1000 | –
O=C(OC(CNc1c(C(=O)c2ccccc2)c(=O)n(Cc2ccccc2)c(=O)n1Cc1ccccc1)CN1CCCCC1)c1ccccc1 (stereo not given) | 23.6 | 71.6 | 15.2 | 29 | – | – | 12.1 | 24.4 | 16.7 | 36 | 19.9 | 12.8 | 25.4 | 14.7 | 40.2 | 29.5
COc1ccc(C(=O)c2cc(OC)c(OC)c(OC)c2)cc1/C=C/C(=O)c1ccc2c(c1)OCO2 | 3.92 | 14.7 | – | – | – | – | – | – | – | – | – | – | – | 1.94 | – | 4.21
COc1cc([N+](=O)[O-])c(OC)cc1-c1nc2n(c1/C(N)=N/C(=N)N)CCS2 | 20.3 | 96.4 | 9.12 | > 100 | – | – | > 100 | > 100 | > 100 | > 100 | > 100 | 89.1 | > 100 | 42.2 | > 100 | > 100
N#C/C(=C\c1ccc([N+](=O)[O-])s1)c1nc2cc(Br)ccc2s1 | 0.918 | > 100 | 0.298 | 0.986 | 0.0856 | 1.77 | – | – | 0.142 | 0.461 | 0.399 | 0.171 | 0.395 | 0.325 | 2.47 | 2.06
N=C(N)c1ccc(-c2ccc(-c3ccc(Cl)c(Cl)c3)o2)nc1 | 2.03 | 3.77 | – | – | 0.559 | > 100 | – | – | 1.5 | 2.97 | – | – | – | 1.65 | – | 3.58
NCC(=O)NC(CO)C(=O)O (stereo not given) | – | > 100 | – | > 100 | – | – | – | > 100 | – | > 100 | – | – | > 100 | – | > 100 | > 100
CS(=O)(=O)N(CC(=O)O)Cc1ccccc1 | – | > 100 | – | > 100 | – | > 100 | – | – | – | – | – | – | > 100 | – | > 100 | > 100
